From patent publication US10927125B2, “Substituted cinnolines as inhibitors of KRAS G12C” (Araxes Pharma LLC, priority 2013, dated 2021)

Each compound was assayed against T1, KRAS G12C 1-169, his-tagged protein, GDP-loaded (Homo sapiens, UniProt P01116, G12C) (assay: Biochemical assay: covalent binding of compounds to KRAS G12C, analysed by mass spectrometry). Settings: binding measured at 30 min (compounds 247-375).
T1 construct: KRAS G12C 1-169, his-tagged protein, GDP-loaded
Experimental: Compounds were tested for activity as follows:
Compounds were diluted to 50× final test concentration in DMSO in 96-well storage plates. […] Reactions were mixed carefully and thoroughly by pipetting up/down with a 200 μl multi-channel pipettor. The plate was sealed well with aluminum plate seal, and stored in drawer at room temperature for 30 min, 2 hour or 24 hrs. 51 μl of 2% formic acid (Fisher cat # A117) in DI H2O was then added to each well followed by mixing with a pipette. The plate was then resealed with aluminum seal and stored on dry ice until analyzed as described below.
The above described assays were analyzed by mass spectrometry according to the following procedure:
The MS instrument is set to positive polarity, 2 GHz resolution, and low mass (1700) mode and allowed to equilibrate for 30 minutes. The instrument is then calibrated, switched to acquisition mode and the appropriate method loaded.
After another 30 minute equilibration time, a blank batch (i.e., buffer) is run to ensure equipment is operating properly. The samples are thawed at 37° C. for 10 minutes, briefly centrifuged, and transfer to the bench top. Wells A1 and H12 are spiked with 1 uL 500 uM internal standard peptide, and the plates centrifuged at 2000×g for 5 minutes. The method is then run and masses of each individual well recorded.
The masses (for which integration data is desired) for each well are pasted into the platemap and exported from the analysis. Masses for the internal standards are exported as well. The data at 50 ppm is extracted for the +19 charge state, and identity of well A1 is assigned using the internal standard spike and integrated. Peak data is exported as a TOF list and the above steps are repeated individually, for the +20, 21, 22, 23, 24, and 25 charge states.

T1 sequence (P01116 1-169 isoform P01116-2 G12C): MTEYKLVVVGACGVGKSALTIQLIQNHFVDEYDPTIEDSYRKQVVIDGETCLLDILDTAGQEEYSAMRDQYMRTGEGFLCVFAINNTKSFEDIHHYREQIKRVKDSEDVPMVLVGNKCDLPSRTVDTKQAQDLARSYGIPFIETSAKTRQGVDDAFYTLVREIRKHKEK

Row | Compound | Binding %
1 | C=CC(=O)N1CCN(c2nc(NCCN(C)C)nc3c(F)c(-c4cc(O)cc5ccccc45)c(Cl)cc23)CC1 [Compound 355, 1-(4-(6-chloro-2-(2-(dimethylamino)ethylamino)-8-fluoro-7-(3-hydroxynaphthalen-1-yl)quinazolin-4-yl)piperazin-1-yl)prop-2-en-1-one] | ++++ (++++ indicates binding activity greater than 75%)
2 | C=CC(=O)N1CCN(c2nc(NC3CCOCC3)nc3c(F)c(-c4c(C)ccc5[nH]ncc45)c(Cl)cc23)CC1 [Compound 365, 1-(4-(6-chloro-8-fluoro-7-(5-methyl-1H-indazol-4-yl)-2-(tetrahydro-2H-pyran-4-ylamino)quinazolin-4-yl)piperazin-1-yl)prop-2-en-1-one] | ++++ (++++ indicates binding activity greater than 75%)
3 | C=CC(=O)N1CCN(c2nc(NC3CCN(CC(F)(F)F)C3)nc3c(F)c(-c4cc(O)cc5ccccc45)c(Cl)cc23)CC1 (centres unmarked) [Compound 349, 1-(4-(6-chloro-8-fluoro-7-(3-hydroxynaphthalen-1-yl)-2-(1-(2,2,2-trifluoroethyl)pyrrolidin-3-ylamino)quinazolin-4-yl)piperazin-1-yl)prop-2-en-1-one] | +++ (+++ indicates binding activity greater than 50% and up to 75%)
4 | C=CC(=O)N1CCN(c2nc(Oc3cnn(C)c3)nc3c(F)c(-c4c(C)ccc5[nH]ncc45)c(Cl)cc23)CC1 [Compound 375, 1-(4-(6-chloro-8-fluoro-7-(5-methyl-1H-indazol-4-yl)-2-(1-methyl-1H-pyrazol-4-yloxy)quinazolin-4-yl)piperazin-1-yl)prop-2-en-1-one] | +++ (+++ indicates binding activity greater than 50% and up to 75%)
5 | C=CC(=O)N1CCN(c2nc(NCCc3nccn3C)nc3c(F)c(-c4c(C)ccc5[nH]ncc45)c(Cl)cc23)CC1 [Compound 352, 1-(4-(6-chloro-8-fluoro-2-(2-(1-methyl-1H-imidazol-2-yl)ethylamino)-7-(5-methyl-1H-indazol-4-yl)quinazolin-4-yl)piperazin-1-yl)prop-2-en-1-one] | ++++ (++++ indicates binding activity greater than 75%)
6 | C=CC(=O)N1CCN(c2nc(NC)nc3c(F)c(-c4cc(O)cc5ccccc45)c(Cl)cc23)CC1 [Compound 345, 1-(4-(6-chloro-8-fluoro-7-(3-hydroxynaphthalen-1-yl)-2-(methylamino)quinazolin-4-yl)piperazin-1-yl)prop-2-en-1-one] | ++++ (++++ indicates binding activity greater than 75%)
7 | C=CC(=O)N1CCN(c2nc(OCCCN3CCOCC3)nc3c(F)c(-c4c(C)ccc5[nH]ncc45)c(Cl)cc23)CC1 [Compound 357, 1-(4-(6-chloro-8-fluoro-7-(5-methyl-1H-indazol-4-yl)-2-(3-morpholinopropoxy)quinazolin-4-yl)piperazin-1-yl)prop-2-en-1-one] | ++++ (++++ indicates binding activity greater than 75%)

Same assay, conditions: binding measured at 2 h (compounds 48-246)

Row | Compound | Binding %
8 | C=CC(=O)N1CCC(n2c(=O)cnc3cc(-c4ccc(F)cc4F)c(Cl)cc32)CC1 [Compound 151, 1-(1-acryloylpiperidin-4-yl)-7-chloro-6-(2,4-difluorophenyl)quinoxalin-2(1H)-one] | + (+ indicates binding activity from 5% to 25%)
9 | C#Cc1cnc2cc(-c3ccccc3F)c(Cl)cc2c1N1CCN(C(=O)C=C)CC1 [Compound 215, 1-(4-(6-chloro-3-ethynyl-7-(2-fluorophenyl)quinolin-4-yl)piperazin-1-yl)prop-2-en-1-one] | ++ (++ indicates binding activity greater than 25% and up to 50%)
10 | C=CC(=O)N1CCN(c2c(C(N)=O)cnc3cc(-c4ccccc4F)c(Cl)cc23)CC1 [Compound 189, 4-(4-acryloylpiperazin-1-yl)-6-chloro-7-(2-fluorophenyl)quinoline-3-carboxamide] | ++ (++ indicates binding activity greater than 25% and up to 50%)
11 | C=CC(=O)N1CCN(c2ncnc3cc(-c4c(O)cccc4F)c(Cl)cc23)CC1 [Compound 138, 1-(4-(6-chloro-7-(2-fluoro-6-hydroxyphenyl)quinazolin-4-yl)piperazin-1-yl)prop-2-en-1-one] | ++++ (++++ indicates binding activity greater than 75%)
